According to PubChem BioAssay (NCI):
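Test compounds were applied to cells in 96-well plates for 48 hours at 5 doses. At the GI50, growth is halved. TGI marks complete inhibition of growth.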

What was measured:
Assay in all cases: NCI tumour cell line growth inhibition, 48 h
SF-268 CNS = system: SF-268 CNS
HOP-92 NSCLC = system: HOP-92 NSCLC
HS 578T breast = system: HS 578T breast
U251 CNS = system: U251 CNS
SK-MEL-28 melanoma = system: SK-MEL-28 melanoma
BT-549 breast = system: BT-549 breast
EKVX NSCLC = system: EKVX NSCLC
TK-10 renal = system: TK-10 renal
A498 renal = system: A498 renal
RPMI-8226 leukemia = system: RPMI-8226 leukemia
NCI-H460 lung = system: NCI-H460 lung
NCI-H522 lung = system: NCI-H522 lung
SK-MEL-2 melanoma = system: SK-MEL-2 melanoma
PC-3 prostate = system: PC-3 prostate
KM12 colon = system: KM12 colon
SF-539 CNS = system: SF-539 CNS
HL-60(TB) leukemia = system: HL-60(TB) leukemia
SK-MEL-5 melanoma = system: SK-MEL-5 melanoma
786-0 renal = system: 786-0 renal
MDA-MB-435 = system: MDA-MB-435
M14 melanoma = system: M14 melanoma
RXF 393 renal = system: RXF 393 renal
UACC-62 melanoma = system: UACC-62 melanoma
HCC-2998 colon = system: HCC-2998 colon
MALME-3M melanoma = system: MALME-3M melanoma
NCI-H226 lung = system: NCI-H226 lung
SK-OV-3 ovarian = system: SK-OV-3 ovarian
SNB-19 CNS = system: SNB-19 CNS
ACHN renal = system: ACHN renal
MOLT-4 leukemia = system: MOLT-4 leukemia
SR leukemia = system: SR leukemia
A549 NSCLC = system: A549 NSCLC
HT29 colon = system: HT29 colon
UACC-257 melanoma = system: UACC-257 melanoma
OVCAR-3 ovarian = system: OVCAR-3 ovarian
K-562 leukemia = system: K-562 leukemia
HCT-15 colon = system: HCT-15 colon
T-47D breast = system: T-47D breast
HOP-62 NSCLC = system: HOP-62 NSCLC
SF-295 CNS = system: SF-295 CNS
DU-145 prostate = system: DU-145 prostate
OVCAR-8 ovarian = system: OVCAR-8 ovarian
LOX IMVI melanoma = system: LOX IMVI melanoma
NCI-H23 lung = system: NCI-H23 lung
OVCAR-4 ovarian = system: OVCAR-4 ovarian
COLO 205 colon = system: COLO 205 colon
SN12C renal = system: SN12C renal
CAKI-1 renal = system: CAKI-1 renal
SW-620 colon = system: SW-620 colon
MCF7 breast = system: MCF7 breast
CCRF-CEM leukemia = system: CCRF-CEM leukemia
OVCAR-5 ovarian = system: OVCAR-5 ovarian
IGROV1 ovarian = system: IGROV1 ovarian
UO-31 renal = system: UO-31 renal
NCI/ADR-RES ovarian = system: NCI/ADR-RES ovarian
MDA-MB-231 breast = system: MDA-MB-231 breast
SNB-75 CNS = system: SNB-75 CNS
HCT-116 colon = system: HCT-116 colon

## O=C1[C@@H]2Cc3c([nH]c4ccccc34)[C@H](c3c(Cl)cccc3Cl)N2C(=O)CN1C1CCN(Cc2ccccc2)CC1
SF-268 CNS
  GI50: 2.82 µM
  TGI: 10.8 µM
HOP-92 NSCLC
  GI50: 1.55 µM
  TGI: 7.25 µM
HS 578T breast
  GI50: 2.21 µM
  TGI: 6.52 µM
U251 CNS
  GI50: 2.34 µM
  TGI: 4.63 µM
SK-MEL-28 melanoma
  GI50: 2.37 µM
  TGI: 4.55 µM
BT-549 breast
  GI50: 2.22 µM
  TGI: 5.17 µM
EKVX NSCLC
  GI50: 6.78 µM
  TGI: > 14.3 µM
TK-10 renal
  GI50: 2.58 µM
  TGI: 5.13 µM
A498 renal
  GI50: 3.49 µM
  TGI: 12.4 µM
RPMI-8226 leukemia
  GI50: 2.74 µM
  TGI: 8.28 µM
NCI-H460 lung
  GI50: 2.82 µM
  TGI: 5.68 µM
NCI-H522 lung
  GI50: 2.95 µM
  TGI: 7.7 µM
SK-MEL-2 melanoma
  GI50: 4.94 µM
  TGI: > 14.3 µM
PC-3 prostate
  GI50: 3.06 µM
  TGI: 10.7 µM
KM12 colon
  GI50: 4.59 µM
  TGI: > 14.3 µM
SF-539 CNS
  GI50: 2.37 µM
  TGI: 4.55 µM
HL-60(TB) leukemia
  GI50: 4.03 µM
  TGI: 13.6 µM
SK-MEL-5 melanoma
  GI50: 2.4 µM
  TGI: 4.82 µM
786-0 renal
  GI50: 2.5 µM
  TGI: 4.7 µM
MDA-MB-435
  GI50: 2.36 µM
  TGI: 4.81 µM
M14 melanoma
  GI50: 2.42 µM
  TGI: 6.47 µM
RXF 393 renal
  GI50: 1.92 µM
  TGI: 3.86 µM
UACC-62 melanoma
  GI50: 2.26 µM
  TGI: 4.66 µM
HCC-2998 colon
  GI50: 2.27 µM
  TGI: 4.72 µM
MALME-3M melanoma
  GI50: 2.3 µM
  TGI: 4.87 µM
NCI-H226 lung
  GI50: 10.6 µM
  TGI: > 14.3 µM
SK-OV-3 ovarian
  GI50: 2.85 µM
  TGI: 8.47 µM
SNB-19 CNS
  GI50: 5.25 µM
  TGI: > 14.3 µM
ACHN renal
  GI50: 2.19 µM
  TGI: 4.15 µM
MOLT-4 leukemia
  GI50: 3.03 µM
  TGI: 13.8 µM
SR leukemia
  GI50: 2.32 µM
  TGI: 6.92 µM
A549 NSCLC
  GI50: 2.68 µM
  TGI: 7.2 µM
HT29 colon
  GI50: 3.23 µM
  TGI: 8.02 µM
UACC-257 melanoma
  GI50: 2.46 µM
  TGI: 5.68 µM
OVCAR-3 ovarian
  GI50: 2.85 µM
  TGI: 6.83 µM
K-562 leukemia
  GI50: 2.98 µM
  TGI: 7.56 µM
HCT-15 colon
  GI50: 2.52 µM
  TGI: 5.09 µM
T-47D breast
  GI50: 2.59 µM
  TGI: 7.95 µM
HOP-62 NSCLC
  GI50: 2.29 µM
  TGI: 5.66 µM
SF-295 CNS
  GI50: 2.46 µM
  TGI: 4.62 µM
DU-145 prostate
  GI50: 4.55 µM
  TGI: > 14.3 µM
OVCAR-8 ovarian
  GI50: 3.8 µM
  TGI: 13.1 µM
LOX IMVI melanoma
  GI50: 2.21 µM
  TGI: 4.54 µM
NCI-H23 lung
  GI50: 4.77 µM
  TGI: > 14.3 µM
OVCAR-4 ovarian
  GI50: 2.42 µM
  TGI: 5.1 µM
COLO 205 colon
  GI50: 4.09 µM
  TGI: > 14.3 µM
SN12C renal
  GI50: 2.35 µM
  TGI: 5.31 µM
CAKI-1 renal
  GI50: 1.81 µM
  TGI: 4.79 µM
SW-620 colon
  GI50: 2.93 µM
  TGI: 7.19 µM
MCF7 breast
  GI50: 2.13 µM
  TGI: 4.61 µM
CCRF-CEM leukemia
  GI50: 4.33 µM
  TGI: > 14.3 µM
OVCAR-5 ovarian
  GI50: 3.12 µM
  TGI: 9.29 µM
IGROV1 ovarian
  GI50: 2.07 µM
  TGI: 7.52 µM
UO-31 renal
  GI50: 1.43 µM
  TGI: 3.15 µM
NCI/ADR-RES ovarian
  GI50: 2.78 µM
  TGI: 6.86 µM
MDA-MB-231 breast
  GI50: 2.57 µM
  TGI: 6.27 µM
SNB-75 CNS
  GI50: 0.719 µM
  TGI: 3.43 µM
HCT-116 colon
  GI50: 2.6 µM
  TGI: 5.49 µM

## O=C(NNc1nc2cc(F)c(F)cc2n2cccc12)c1ccncn1
SF-268 CNS
  GI50: 0.408 µM
  TGI: 9.39 µM
HOP-92 NSCLC
  GI50: 0.697 µM
  TGI: 6.38 µM
HS 578T breast
  GI50: 2.94 µM
  TGI: 20.4 µM
U251 CNS
  GI50: 0.182 µM
  TGI: 7.02 µM
SK-MEL-28 melanoma
  GI50: 0.771 µM
  TGI: 6.35 µM
BT-549 breast
  GI50: 1.4 µM
  TGI: 8.94 µM
EKVX NSCLC
  GI50: 0.255 µM
  TGI: 4.93 µM
TK-10 renal
  GI50: 0.547 µM
  TGI: 5.18 µM
A498 renal
  GI50: 1.14 µM
  TGI: 5.62 µM
RPMI-8226 leukemia
  GI50: 0.571 µM
  TGI: > 20.9 µM
NCI-H460 lung
  GI50: 0.161 µM
  TGI: 9.46 µM
NCI-H522 lung
  GI50: 0.803 µM
  TGI: 11.6 µM
SK-MEL-2 melanoma
  GI50: 3.52 µM
  TGI: 11.5 µM
PC-3 prostate
  GI50: 0.309 µM
  TGI: > 13.4 µM
KM12 colon
  GI50: 0.331 µM
  TGI: 12.5 µM
SF-539 CNS
  GI50: 0.596 µM
  TGI: 6.3 µM
HL-60(TB) leukemia
  GI50: 0.39 µM
  TGI: > 14.8 µM
SK-MEL-5 melanoma
  GI50: 0.745 µM
  TGI: 5.12 µM
786-0 renal
  GI50: 1.01 µM
  TGI: 6.64 µM
MDA-MB-435
  GI50: 1.12 µM
  TGI: 6.96 µM
M14 melanoma
  GI50: 0.37 µM
  TGI: 8.6 µM
RXF 393 renal
  GI50: 0.834 µM
  TGI: 5.16 µM
UACC-62 melanoma
  GI50: 0.333 µM
  TGI: 5.14 µM
HCC-2998 colon
  GI50: 0.452 µM
  TGI: 4.55 µM
MALME-3M melanoma
  GI50: 1.5 µM
  TGI: 6.77 µM
NCI-H226 lung
  GI50: 0.381 µM
  TGI: 5.66 µM
SK-OV-3 ovarian
  GI50: 0.522 µM
  TGI: 5.16 µM
SNB-19 CNS
  GI50: 0.417 µM
  TGI: 10.6 µM
ACHN renal
  GI50: 0.187 µM
  TGI: 3.93 µM
MOLT-4 leukemia
  GI50: 0.179 µM
  TGI: > 30 µM
SR leukemia
  GI50: 0.146 µM
  TGI: > 12.3 µM
A549 NSCLC
  GI50: 0.275 µM
  TGI: 20.2 µM
HT29 colon
  GI50: 0.395 µM
  TGI: 15.3 µM
UACC-257 melanoma
  GI50: 0.926 µM
  TGI: 5.88 µM
OVCAR-3 ovarian
  GI50: 0.301 µM
  TGI: 5.16 µM
K-562 leukemia
  GI50: 0.173 µM
  TGI: > 30 µM
HCT-15 colon
  GI50: 0.119 µM
  TGI: 5.52 µM
T-47D breast
  GI50: 0.353 µM
  TGI: 5.17 µM
HOP-62 NSCLC
  GI50: 0.199 µM
  TGI: 6.66 µM
SF-295 CNS
  GI50: 0.156 µM
  TGI: 3.87 µM
DU-145 prostate
  GI50: 0.4 µM
  TGI: 18.2 µM
OVCAR-8 ovarian
  GI50: 0.253 µM
  TGI: 9.55 µM
LOX IMVI melanoma
  GI50: 0.191 µM
  TGI: 5.11 µM
NCI-H23 lung
  GI50: 1.26 µM
  TGI: 11.5 µM
OVCAR-4 ovarian
  GI50: 0.18 µM
  TGI: 3.61 µM
COLO 205 colon
  GI50: 0.313 µM
  TGI: 4.06 µM
SN12C renal
  GI50: 0.678 µM
  TGI: 9.34 µM
CAKI-1 renal
  GI50: 0.286 µM
  TGI: 4.22 µM
SW-620 colon
  GI50: 0.313 µM
  TGI: 12.2 µM
MCF7 breast
  GI50: 0.235 µM
  TGI: 3.93 µM
CCRF-CEM leukemia
  GI50: 0.142 µM
  TGI: > 30 µM
OVCAR-5 ovarian
  GI50: 1.19 µM
  TGI: 11.4 µM
IGROV1 ovarian
  GI50: 0.206 µM
  TGI: 4.87 µM
UO-31 renal
  GI50: 0.14 µM
  TGI: 4.19 µM
NCI/ADR-RES ovarian
  GI50: 0.225 µM
  TGI: 6.33 µM
MDA-MB-231 breast
  GI50: 0.839 µM
  TGI: 6.95 µM
SNB-75 CNS
  GI50: 0.365 µM
  TGI: 6.35 µM
HCT-116 colon
  GI50: 0.217 µM
  TGI: 5.43 µM
